These results are taken from patent publication US12378224B2 (Dong-A Socio Holdings Co., Ltd., priority 2016, dated 2025).

A word on the IC50: it is the concentration needed to halve the response being measured. Read a low IC50 as greater potency in that assay.

Chain of human MER (528-end) (Q12866 528-999 limits assumed): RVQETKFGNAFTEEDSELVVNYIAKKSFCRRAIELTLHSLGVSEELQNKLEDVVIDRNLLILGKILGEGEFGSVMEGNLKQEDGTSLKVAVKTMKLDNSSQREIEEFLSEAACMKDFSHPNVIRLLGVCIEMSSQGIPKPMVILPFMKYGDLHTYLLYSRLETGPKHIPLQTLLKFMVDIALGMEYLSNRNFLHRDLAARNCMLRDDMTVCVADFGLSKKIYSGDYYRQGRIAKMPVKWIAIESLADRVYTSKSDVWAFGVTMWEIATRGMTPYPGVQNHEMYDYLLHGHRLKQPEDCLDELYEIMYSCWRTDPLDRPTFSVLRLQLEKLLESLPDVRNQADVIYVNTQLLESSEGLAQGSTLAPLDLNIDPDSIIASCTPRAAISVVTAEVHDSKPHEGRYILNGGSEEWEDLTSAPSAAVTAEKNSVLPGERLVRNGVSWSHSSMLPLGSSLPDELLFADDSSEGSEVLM

In the test the target is human MER (528-end) (Homo sapiens (Human), UniProt Q12866). Briefly: HTRF Kinase Activity Biochemical Assay (KinEASE-TK). To be noted: 10 uM ATP. In a few lines:
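Recombinant human MER (528-end) phosphorylated biotin-TK peptide substrate, 1 h at room temperature. Reaction stopped with detection buffer containing 0.375 nM Eu3+-cryptate anti-TK antibody and 0.062 uM streptavidin-XL665, 1 h further. Activity taken as HTRF ratio 665/620 nm ×10,000, 340 nm excitation.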
`COc1ccccc1-c1ccc(C(=O)N2CC[C@@H](NC(=O)c3cc(-c4cnn(C)c4)cnc3N)C2)cc1` [Example 354, (R)-2-amino-N-(1-(2′-methoxy-[1,1′-biphenyl]-4-carbonyl)pyrrolidin-3-yl)-5-(1-methyl-1H-pyrazol-4-yl)nicotinamide]: the IC50 was in the range of 10 to 100 nM.

Consider `Cc1nn(C)cc1-c1cccc(C(=O)N2CC[C@@H](NC(=O)c3cc(-c4cnn(C)c4)cnc3N)C2)c1` [Example 469, (R)-2-amino-N-(1-(3-(1,3-dimethyl-1H-pyrazol-4-yl)benzoyl)pyrrolidin-3-yl)-5-(1-methyl-1H-pyrazol-4-yl)nicotinamide], for which the IC50 is over 1000 nM.

The compound `Cn1cc(-c2cnc(N)c(C(=O)N[C@@H]3CCN(C(=O)c4cc(Br)c(Br)s4)C3)c2)cn1` [Example 407, (R)-2-amino-N-(1-(4,5-dibromothiophene-2-carbonyl)pyrrolidin-3-yl)-5-(1-methyl-1H-pyrazol-4-yl)nicotinamide] showed an IC50 of over 1000 nM.

`Cn1cc(-c2cnc(N)c(C(=O)N[C@@H]3CCN(C(=O)c4ccc(C(C)(C)C)cc4)C3)c2)cn1` [Example 414, (R)-2-amino-N-(1-(4-(tert-butyl)benzoyl)pyrrolidin-3-yl)-5-(1-methyl-1H-pyrazol-4-yl)nicotinamide]: the IC50 is over 1000 nM.

In turn, `Cn1cc(-c2cnc(N)c(C(=O)N[C@@H]3CCN(C(=O)Oc4cccc(-c5ccc(CN6CCCC(CO)C6)cc5)c4)C3)c2)cn1` (stereo partly drawn) [Example 320, 4′-((3-(hydroxymethyl)piperidin-1-yl)methyl)-[1,1′-biphenyl]-3-yl (3R)-3-(2-amino-5-(1-methyl-1H-pyrazol-4-yl)nicotinamido)pyrrolidine-1-carboxylate] showed an IC50 of 100 to 1000 nM.

As for `Nc1ncc(-c2ccc(F)nc2)cc1C(=O)N[C@@H]1CCN(C(=O)c2ccc(-c3ccccc3)cc2)C1` [Example 560, (R)—N-(1-([1,1′-biphenyl]-4-carbonyl)pyrrolidin-3-yl)-6-amino-6′-fluoro-[3,3′-bipyridine]-5-carboxamide], the IC50 is 100 to 1000 nM.

On to `CN1CCN(c2cccc(-c3cccc(C(=O)N4CC[C@@H](NC(=O)c5cc(-c6cnn(C)c6)cnc5N)C4)c3)c2)CC1` [Example 476, (R)-2-amino-5-(1-methyl-1H-pyrazol-4-yl)-N-(1-(3′-(4-methylpiperazin-1-yl)-[1,1′-biphenyl]-3-carbonyl)pyrrolidin-3-yl)nicotinamide], for which the IC50 is over 1000 nM.

Take `Cn1cc(-c2cnc(N)c(C(=O)N[C@@H]3CCN(C(=O)Oc4ccccc4CO)C3)c2)cn1` [Example 71, 2-(hydroxymethyl)phenyl (R)-3-(2-amino-5-(1-methyl-1H-pyrazol-4-yl)nicotinamido)pyrrolidine-1-carboxylate]: the 50% inhibitory concentration (IC50) was over 1000 nM.

Turning to `Cn1cc(-c2cnc(N)c(C(=O)N[C@@H]3CCN(c4ccccn4)C3)c2)cn1` [Example 135, (R)-2-amino-5-(1-methyl-1H-pyrazol-4-yl)-N-(1-(pyridin-2-yl)pyrrolidin-3-yl)nicotinamide], the IC50 is over 1000 nM.

In turn, `Cn1cc(-c2cnc(N)c(C(=O)N[C@@H]3CCN(C(=O)Nc4cc(C(F)(F)F)cc(C(F)(F)F)c4)C3)c2)cn1` [Example 5, (R)-2-amino-N-(1-((3,5-bis(trifluoromethyl)phenyl)carbamoyl)pyrrolidin-3-yl)-5-(1-methyl-1H-pyrazol-4-yl)nicotinamide] showed an IC50 of over 1000 nM.

For the compound `Cn1cc(-c2cnc(N)c(C(=O)N[C@@H]3CCN(C(=O)c4ccc(/C=C/c5ccccn5)cc4)C3)c2)cn1` [Example 825, (R,E)-2-amino-5-(1-methyl-1H-pyrazol-4-yl)—N-(1-(4-(2-(pyridin-2-yl)vinyl)benzoyl)pyrrolidin-3-yl)nicotinamide], the IC50 is 100 to 1000 nM.

With `Cn1cc(-c2cnc(N)c(C(=O)N[C@@H]3CCN(C(=O)Oc4ccc5ccc(OCC6CCNCC6)cc5c4)C3)c2)cn1` [Example 298], the IC50 was 100 to 1000 nM.

`Cn1cc(-c2cnc(N)c(C(=O)N[C@@H]3CCN(C(=O)Oc4cccc(-c5cnn(CCO)c5)c4)C3)c2)cn1` [Example 284, 3-(1-(2-hydroxyethyl)-1H-pyrazol-4-yl)phenyl (R)-3-(2-amino-5-(1-methyl-1H-pyrazol-4-yl)nicotinamido)pyrrolidine-1-carboxylate] returned an IC50 of over 1000 nM.

The compound `CCOC(=O)c1csc(N2CC[C@@H](NC(=O)c3cc(-c4cnn(C)c4)cnc3N)C2)n1` [Example 139, ethyl (R)-2-(3-(2-amino-5-(1-methyl-1H-pyrazol-4-yl)nicotinamido)pyrrolidin-1-yl)thiazole-4-carboxylate] displayed an IC50 of over 1000 nM.

Compound `CCc1cccc(NC(=O)N2CC[C@@H](NC(=O)c3cc(-c4cnn(C)c4)cnc3N)C2)c1` [Example 19, (R)-2-amino-N-(1-((3-ethylphenyl)carbamoyl)pyrrolidin-3-yl)-5-(1-methyl-1H-pyrazol-4-yl)nicotinamide] gave an IC50 of over 1000 nM.

Compound `Cn1cc(-c2cnc(N)c(C(=O)N[C@@H]3CCN(C(=O)Oc4ccc5ncccc5c4)C3)c2)cn1` [Example 72, quinolin-6-yl (R)-3-(2-amino-5-(1-methyl-1H-pyrazol-4-yl)nicotinamido)pyrrolidine-1-carboxylate] gave an IC50 of over 1000 nM.

As to `CN1CCN(C(=O)Cc2ccc(-c3cccc(C(=O)N4CC[C@@H](NC(=O)c5cc(-c6cnn(C)c6)cnc5N)C4)c3)cc2)CC1` [Example 454, (R)-2-amino-5-(1-methyl-1H-pyrazol-4-yl)-N-(1-(4′-(2-(4-methylpiperazin-1-yl)-2-oxoethyl)-[1,1′-biphenyl]-3-carbonyl)pyrrolidin-3-yl)nicotinamide], the IC50 was over 1000 nM.

Turning to `Cn1cc(-c2cnc(N)c(C(=O)N[C@@H]3CCN(C(=O)Oc4cc(Cl)ccc4Cl)C3)c2)cn1` [Example 61, 2,5-dichlorophenyl (R)-3-(2-amino-5-(1-methyl-1H-pyrazol-4-yl)nicotinamido)pyrrolidine-1-carboxylate], the IC50 is over 1000 nM.

Compound `Cc1c(N)cccc1-c1ccc(C(=O)N2CC[C@@H](NC(=O)c3cc(-c4cnn(C)c4)cnc3N)C2)cc1` [Example 376, (R)-2-amino-N-(1-(3′-amino-2′-methyl-[1,1′-biphenyl]-4-carbonyl)pyrrolidin-3-yl)-5-(1-methyl-1H-pyrazol-4-yl)nicotinamide] showed an IC50 of 100 to 1000 nM.

With `Cn1cc(-c2cnc(N)c(C(=O)NC[C@H]3CCCN3C(=O)c3ccc(-c4ccccc4)cc3)c2)cn1` [Example 736, (R)—N-((1-([1,1′-biphenyl]-4-carbonyl)pyrrolidin-2-yl)methyl)-2-amino-5-(1-methyl-1H-pyrazol-4-yl)nicotinamide], the IC50 was over 1000 nM.

`Cc1ccc(-c2ccc(C(=O)N3CC[C@@H](NC(=O)c4cc(-c5cnn(C)c5)cnc4N)C3)cc2O)s1` [Example 535, (R)-2-amino-N-(1-(3-hydroxy-4-(5-methylthiophen-2-yl)benzoyl)pyrrolidin-3-yl)-5-(1-methyl-1H-pyrazol-4-yl)nicotinamide] returned an IC50 of 100 to 1000 nM.

`Cn1cc(-c2cnc(N)c(C(=O)N[C@@H]3CCN(C(=O)Oc4cccc(Cl)c4Cl)C3)c2)cn1` [Example 60, 2,3-dichlorophenyl (R)-3-(2-amino-5-(1-methyl-1H-pyrazol-4-yl)nicotinamido)pyrrolidine-1-carboxylate] showed an IC50 of over 1000 nM.

For `CN(C(=O)N1CC[C@@H](NC(=O)c2cc(-c3cnn(C)c3)cnc2N)C1)c1ccccc1` [Example 625, (R)-2-amino-N-(1-(methyl(phenyl)carbamoyl)pyrrolidin-3-yl)-5-(1-methyl-1H-pyrazol-4-yl)nicotinamide], the IC50 was over 1000 nM.

The compound `Cn1cc(-c2cnc(N)c(C(=O)N[C@@H]3CCN(C(=O)NC4CCCCC4)C3)c2)cn1` [Example 30, (R)-2-amino-N-(1-(cyclohexylcarbamoyl)pyrrolidin-3-yl)-5-(1-methyl-1H-pyrazol-4-yl)nicotinamide] showed an IC50 of 100 to 1000 nM.

`Cn1cc(-c2cnc(N)c(C(=O)N[C@@H]3CCN(C(=O)c4cccc(-c5cnn(C6CCNCC6)c5)c4)C3)c2)cn1` [Example 451, (R)-2-amino-5-(1-methyl-1H-pyrazol-4-yl)-N-(1-(3-(1-(piperidin-4-yl)-1H-pyrazol-4-yl)benzoyl)pyrrolidin-3-yl)nicotinamide] came in with an IC50 of over 1000 nM.

`Cc1nn(-c2ccccc2)c(C)c1-c1ccc(C(=O)N2CC[C@@H](NC(=O)c3cc(-c4cnn(C)c4)cnc3N)C2)cc1` [Example 519, (R)-2-amino-N-(1-(4-(3,5-dimethyl-1-phenyl-1H-pyrazol-4-yl)benzoyl)pyrrolidin-3-yl)-5-(1-methyl-1H-pyrazol-4-yl)nicotinamide]: the IC50 is over 1000 nM.

The compound `Cn1cc(-c2cnc(N)c(C(=O)N[C@@H]3CCN(C(=O)c4ccc(-c5ccc(C(C)(C)C)cc5)cc4)C3)c2)cn1` [Example 378, (R)-2-amino-N-(1-(4′-(tert-butyl)-[1,1′-biphenyl]-4-carbonyl)pyrrolidin-3-yl)-5-(1-methyl-1H-pyrazol-4-yl)nicotinamide] displayed an IC50 of over 1000 nM.

`Cn1cc(-c2cnc(N)c(C(=O)N[C@@H]3CCN(C(=S)Nc4cccc(-c5ccccc5)c4)C3)c2)cn1` [Example 51, (R)—N-(1-([1,1′-biphenyl]-3-ylcarbamothioyl)pyrrolidin-3-yl)-2-amino-5-(1-methyl-1H-pyrazol-4-yl)nicotinamide] came in with an IC50 of 100 to 1000 nM.

`Cn1cc(-c2cnc(N)c(C(=O)N[C@@H]3CCN(C(=O)Oc4cccc(-c5ccc(CN6CCC(CO)CC6)cc5)c4)C3)c2)cn1` [Example 321, 4′-((4-(hydroxymethyl)piperidin-1-yl)methyl)-[1,1′-biphenyl]-3-yl (R)-3-(2-amino-5-(1-methyl-1H-pyrazol-4-yl)nicotinamido)pyrrolidine-1-carboxylate]: the IC50 was in the range of 100 to 1000 nM.

The compound `C/C(=C\c1ccc(C(=O)N2CC[C@@H](NC(=O)c3cc(-c4cnn(C)c4)cnc3N)C2)cc1)c1ccccc1` [Example 826, (R,E)-2-amino-5-(1-methyl-1H-pyrazol-4-yl)-N-(1-(4-(2-phenylprop-1-en-1-yl)benzoyl)pyrrolidin-3-yl)nicotinamide] showed an IC50 of over 1000 nM.
